Common to all, as to experiment: DTP human tumour cell line panel, 48 h
For assay [1], the system named is 786-0.
For assay [2], the system named is CAKI-1.
The test system of assay [3] is EKVX.
Assay [4] relates to HCT-116.
For assay [5], the system named is HCT-15.
Assay [6] has as its system HOP-62.
In assay [7] the test system is HT-29.
In assay [8] the test system is IGROV-1.
Assay [9] deals with K562.
The subject of assay [10] is NCI-H460.
Assay [11] relates to NCI-H522.
Assay [12] has as its system OVCAR-4.
For assay [13], the system named is OVCAR-5.
Assay [14] relates to SF-295.
Assay [15] relates to SNB-75.
Assay [16] deals with SR.
For assay [17], the system named is U-251.
Assay [18] deals with CCRF-CEM.

This is an account of results in ChEMBL document CHEMBL1201862, “PubChem BioAssay data set” (2004).

In general, GI50 refers to the concentration at which growth is held to half of that of the control.

Each structure is given as a SMILES string.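 Results reflect a 48-hour exposure of cells in 96-well plates to compound at five concentrations. GI50 is the concentration that inhibits growth by half.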 Active and inactive are the calls of the source. Cut-off read from the data, not from the text of the source: active = GI50 up to about 1.1 µM and inactive = higher. Some results are limits rather than exact numbers.

`CSC(=S)c1ccc(C(=S)SC)cc1`: the GI50 in assay [1] is > 100 µM (inactive); in assay [2], > 100 µM (inactive); in assay [3] it was > 100 µM (inactive); in assay [4], > 100 µM (inactive); in [5], above 100 µM; in assay [6], > 100 µM (inactive). For the same compound, the GI50 in [7], in [8], in assay [9], in assay [10], in assay [11] and in [12] was > 100 µM (inactive) each time. The GI50 in [13], in [14], in assay [15], in assay [16] and in [17] was > 100 µM (inactive) throughout.
Consider `COC(=O)[C@@]12C(=O)CCC(=O)C1C1C(=CC2C)O[C@@H]2OC3(CCCCC3)O[C@H]12` (some centres undefined), for which the GI50 in [1] is > 83.6 µM (inactive); in [2], > 90.4 µM (inactive); in assay [18], 29.9 µM (inactive); in assay [3], 99.8 µM (inactive); in [4], 43.8 µM (inactive); in assay [5], 54.2 µM. The GI50 was > 100 µM (inactive) in [6]; 47.6 µM (inactive) in assay [7]; > 94.6 µM (inactive) in [8]; 40.3 µM (inactive) in assay [9]; > 100 µM (inactive) in assay [10]; 18.6 µM (inactive) in [11]. For the same compound, the GI50 in assay [12] was 59.2 µM (inactive); in [13], > 100 µM (inactive); in assay [14] it was > 100 µM (inactive); in [15], > 85.1 µM (inactive); in assay [16], 25.9 µM (inactive); in assay [17], > 100 µM (inactive).
`O=C(O)CCC(N/C=C1/N=C(c2ccccc2)OC1=O)C(=O)O` (centres undefined): the GI50 in [1] is > 100 µM (inactive); in [2], > 100 µM (inactive); in assay [18], > 100 µM (inactive); in assay [3], > 100 µM (inactive); in assay [4], > 100 µM (inactive); in assay [5], above 100 µM. Also, the GI50 in [6], in assay [7], in assay [8], in assay [9], in assay [10] and in assay [11] was > 100 µM (inactive) throughout. For the same compound, the GI50 in assay [12], in [13], in assay [14], in assay [15], in [16] and in [17] was > 100 µM (inactive) each time.
With `CC(=O)c1sc(-c2nc(C)c(C(=O)/C=C\c3ccc(/C=C\C(=O)c4sc(-c5nc(C)c(C(C)=O)s5)nc4C)cc3)s2)nc1C`, the GI50 is > 100 µM (inactive) in assay [1]; > 100 µM (inactive) in assay [2]; 80.7 µM (inactive) in assay [18]; > 100 µM (inactive) in [3]; > 100 µM (inactive) in assay [4]; above 100 µM in [5]. Also, the GI50 in assay [6], in assay [7], in assay [8], in assay [9], in assay [10] and in assay [11] was > 100 µM (inactive) in each case. Moreover, the GI50 in assay [12], in assay [13], in assay [14], in assay [16] and in [17] was > 100 µM (inactive) each time.
Consider `CCCCCCCCCCC(=O)CC(=O)c1c(O)cccc1O`, for which the GI50 in assay [1] is 36.1 µM (inactive); in assay [2], 41 µM (inactive); in assay [3], 38.5 µM (inactive); in assay [4], 19.5 µM (inactive); in assay [5], 47.4 µM; in [6] it was 24.1 µM (inactive). For the same compound, the GI50 is 30.7 µM (inactive) in assay [7]; 46.8 µM (inactive) in [8]; 24.9 µM (inactive) in [9]; 34.7 µM (inactive) in [10]; 28.1 µM (inactive) in [11]; 43.1 µM (inactive) in [12]. In addition, the GI50 in assay [13] was 19.7 µM (inactive); in [14] it was 36.6 µM (inactive); in assay [15] it was 40.3 µM (inactive); in assay [16], 33.6 µM (inactive); in assay [17], 21.5 µM (inactive).
Regarding `COC(=O)C1(C)CCc2c(OC)ccc(OC)c2C1=O` (centres undefined), the GI50 in assay [1] is > 100 µM (inactive); in [18] it was > 100 µM (inactive); in assay [3] it was > 100 µM (inactive); in assay [4], > 100 µM (inactive); in assay [5], above 100 µM; in assay [6] it was > 100 µM (inactive). Moreover, the GI50 in assay [8], in [9], in [11], in assay [12], in [13] and in assay [14] was > 100 µM (inactive) each time. Further, the GI50 is 29.8 µM (inactive) in assay [15], > 100 µM (inactive) in assay [16] and > 100 µM (inactive) in assay [17].
With `Cc1ccc(N2C(=O)CS/C2=C(\C#N)c2nc3ccccc3[nH]2)cc1`, the GI50 is > 100 µM (inactive) in assay [1]; > 100 µM (inactive) in [2]; > 100 µM (inactive) in [18]; > 100 µM (inactive) in [3]; > 100 µM (inactive) in assay [4]; above 100 µM in assay [5]. For the same compound, the GI50 in assay [6], in [8], in assay [9], in assay [10], in assay [11] and in assay [12] was > 100 µM (inactive) each time. Further, the GI50 in [13], in assay [15], in assay [16] and in assay [17] was > 100 µM (inactive) throughout.
With `COc1cccc2c1N[S@](=O)S2`, the GI50 in assay [1] was > 100 µM (inactive); in assay [2], > 100 µM (inactive); in assay [18] it was 36.7 µM (inactive); in [3], > 100 µM (inactive); in [4] it was > 100 µM (inactive); in assay [5], 82.4 µM. Besides, the GI50 is > 100 µM (inactive) in assay [7]; > 100 µM (inactive) in [8]; 46 µM (inactive) in assay [9]; 86.1 µM (inactive) in [11]; 95.7 µM (inactive) in [14]; 81.5 µM (inactive) in [15]. The GI50 in [16] is 70.6 µM (inactive); in [17], 39.3 µM (inactive).
Turning to `O=C1OC(c2ccccc2)=N/C1=C\c1cccc2ccccc12`, the GI50 in assay [1] is > 100 µM (inactive); in assay [2] it was > 100 µM (inactive); in [18], > 100 µM (inactive); in [4], > 100 µM (inactive); in [5] it was above 100 µM; in assay [6], > 100 µM (inactive). Also, the GI50 in assay [7], in assay [8], in [9], in assay [10], in assay [11] and in assay [12] was > 100 µM (inactive) each time. The GI50 in assay [13], in assay [14], in [15], in [16] and in assay [17] was > 100 µM (inactive) each time.
